Data set [1] deals with T1, chimeric protein PPARα-Gal4 (Homo sapiens, UniProt Q07869).
T1 construct: Gal4 (fusion partner); expressed in transfected cells; host or cells: CV-1 cells (monkey kidney cells)
T1 sequence (Q07869 239-466 limits assumed): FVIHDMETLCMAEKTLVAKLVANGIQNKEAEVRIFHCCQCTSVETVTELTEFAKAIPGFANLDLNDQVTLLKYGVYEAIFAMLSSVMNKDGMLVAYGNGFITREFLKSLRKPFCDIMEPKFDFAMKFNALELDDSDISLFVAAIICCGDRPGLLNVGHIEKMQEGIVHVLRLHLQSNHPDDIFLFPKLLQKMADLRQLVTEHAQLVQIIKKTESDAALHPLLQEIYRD
Put plainly: PPAR activation, Gal4 chimera luciferase reporter gene in co-transfected CV-1 cells. The format is cell-based. Particulars: 50 μM, 18 hours contact, CV-1 cells (monkey kidney cells). The protocol: (§1) The measurement of the PPAR activation was performed according to a technique described by Lehmann et al. (J. Biol. Chem., 270, (1995), 12953-12956).
(§2) CV-1 cells (monkey kidney cells) are co-transfected with an expression vector for the chimeric proteins PPARα-Gal4 or PPARγ-Gal4 and with a “reporter” plasmid that allows the expression of the luciferase gene placed under the control of a promoter comprising Gal4 response elements.
(§3) The cells are plated into 96-well microplates and co-transfected using a commercial reagent with the reporter plasmid (pG5-tk-pGL3) and the expression vector for the chimeric protein (PPARα-Gal4 or PPARγ-Gal4). After incubating for 4 hours, whole culture medium (comprising 10% foetal calf serum) is added to the wells. After 24 hours, the medium is removed and replaced with whole medium comprising the test products (50 μM final). The products are left in contact with the cells for 18 hours. The cells are then lysed and the luciferase activity is measured using a luminometer. A PPAR activation factor can then be calculated by means of activation of the expression of the reporter gene induced by the product (relative to the control cells that have not received any product).
For orientation: In a reporter assay the amount or activity of a reporter protein is the signal.

Data set [2] addresses T2, chimeric protein PPARγ-Gal4 (Homo sapiens, UniProt P37231).
T2 construct: Gal4 (fusion partner); expressed in transfected cells; host or cells: CV-1 cells (monkey kidney cells)
T2 sequence (P37231 238-503 limits assumed): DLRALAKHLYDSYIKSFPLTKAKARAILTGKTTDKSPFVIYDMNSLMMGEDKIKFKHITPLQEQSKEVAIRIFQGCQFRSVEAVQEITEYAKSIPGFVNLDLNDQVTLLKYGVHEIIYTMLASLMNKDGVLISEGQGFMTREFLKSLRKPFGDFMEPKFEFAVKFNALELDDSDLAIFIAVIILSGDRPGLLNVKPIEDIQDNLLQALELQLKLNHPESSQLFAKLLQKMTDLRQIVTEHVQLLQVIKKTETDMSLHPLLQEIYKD
Described as above. Type of data set: cell-based. Particulars: 50 μM, 18 hours contact, CV-1 cells (monkey kidney cells). The protocol: as §1, §2, §3

Data set [3] concerns Gal4 alone. The data set can be described thus: Control reporter test without the PPAR ligand binding domain (vector expressing Gal4 alone). Particulars: CV-1 cells. The format is cell-based. The protocol:
CV-1 cells (monkey kidney cells) are co-transfected with an expression vector for the chimeric proteins PPARα-Gal4 or PPARγ-Gal4 and with a “reporter” plasmid that allows the expression of the luciferase gene placed under the control of a promoter comprising Gal4 response elements. The cells are plated into 96-well microplates and co-transfected using a commercial reagent with the reporter plasmid (pG5-tk-pGL3) and the expression vector for the chimeric protein (PPARα-Gal4 or PPARγ-Gal4). After incubating for 4 hours, whole culture medium (comprising 10% foetal calf serum) is added to the wells. After 24 hours, the medium is removed and replaced with whole medium comprising the test products (50 μM final). The products are left in contact with the cells for 18 hours. The cells are then lysed and the luciferase activity is measured using a luminometer. A PPAR activation factor can then be calculated by means of activation of the expression of the reporter gene induced by the product (relative to the control cells that have not received any product). […] In the absence of the binding domain for the PPAR α or γ ligand (vector expressing Gal4 alone), the luciferase activity measured in the presence of this product is zero.

In data set [4] the test system is db/db mice. The data set can be described thus: Antidiabetic and hypolipidaemiant activity, oral, in db/db mice. The format is in vivo. The settings on record: 20 mg/kg/day orally for 15 days. The protocol:
The antidiabetic and hypolipidaemiant activity of the compounds according to the invention was determined orally on db/db mice.
15-week-old db/db mice are treated orally for 15 days with the compound of Example 18 (20 mg/kg/day). Each group studied comprises seven animals. After treatment for 15 days, retro-orbital samples are taken under mild anaesthesia and after fasting for four hours.
The following parameters were measured:
Assay of the glycaemia (glucose oxidase) and of the lipid parameters on the sera at D15 (COBAS): triglycerides, total cholesterol (CHOL), HDL cholesterol (HDL-C) and free fatty acids (FFA) (BioMérieux and Waco Chemicals assay kit).
The measurements reported represent mean values±standard error.

Where [5] appears, read: serum at D15, fasting four hours, mean ± standard error.

Marks after values point to notes of the source that are not given here.

One may read the melting point as the temperature, or range, at which the solid turns liquid. The compound `O=C(O)[C@H](CCc1ccccc1)Oc1ccc(-c2cccnc2)cc1` [Example 7] came in with a melting point of 140 °C.

In the case of `O=C(O)C(CCc1cccs1)Oc1ccc(C(F)(F)F)cc1` (stereo not shown) [Example 229], the melting point is 116 to 118 °C.

`O=C(O)C(CCc1cccc(Cl)c1)Oc1ccc(-c2cc3ccccc3s2)cc1` (stereo not shown) [Example 141] returned a melting point of 109 to 110 °C.

Compound `O=C(c1ccc(Cl)cc1)c1ccc(O[C@@H](CCc2ccccc2)C(=O)O)cc1` [Example 6] gave a melting point of 148 °C.

`O=C(O)[C@H](CCc1ccccc1)Oc1cccc(OCc2ccc3ccccc3n2)c1` [Example 143] registered a melting point of 124 °C.

Take `O=C(O)[C@H](CCc1ccccc1)Oc1ccc(-c2ccc(Cl)s2)cc1` [Example 18, (2S)-2-[4-(5-chlorothien-2-yl)phenoxy]-4-phenylbutanoic acid]: the “PPAR activation factor (reporter gene expression relative to control cells)” value in data set [1] was determined as 16. For the same compound, the “PPAR activation factor (reporter gene expression relative to control cells)” value in data set [2] came out at 41. Also, in data set [3], the “luciferase activity in the absence of the binding domain for the PPAR α or γ ligand” value is on record as “zero”. Further, in data set [4] (D15), the “CHOL, % var. (percentage of variation versus control)” value was “+25 ** %”; the “FFA, % var. (percentage of variation versus control)” value is −40 ** %; the “Glycaemia, % var. (percentage of variation versus control)” value is −53 ** %; the “HDL-C, % var. (percentage of variation versus control)” value is reported as “+10 * %”. The “Triglycerides, % var. (percentage of variation versus control)” value in data set [4] (D15) is −41 ** %. In data set [4] (setting [5]), the “CHOL (total cholesterol)” value amounted to 4.57 ± 0.51 mM, the “FFA (free fatty acids)” value is reported as 0.42 ± 0.06 mM, the Glycaemia was found to be 12.65 ± 7.0 Mm and the HDL-C amounted to 3.53 ± 0.24 mM. The Triglycerides in data set [4] (setting [5]) was found to be 0.77 ± 0.16 mM.

For the compound `O=C(O)[C@H](CCc1ccccc1)Oc1ccc(-c2cccs2)cc1` [Example 9], the melting point fell in the range of 151 to 153 °C.

`COc1ccc(CCC(Oc2ccc(-c3cc4ccccc4s3)cc2)C(=O)O)cc1` (stereo not shown) [Example 142] came in with a melting point of 198 to 199 °C.

Turning to `O=C(O)C(CCc1ccco1)Oc1ccc(C(F)(F)F)cc1` (stereo not shown) [Example 228], the melting point lay in the range of 99 to 99.5 °C.

On to `O=C(O)[C@H](CCc1ccccc1)Oc1ccc(-c2cc3ccccc3o2)cc1` [Example 144], for which the melting point was 198 °C.

Take `O=C(O)C(CCc1ccccc1)Oc1ccc2oc3ccccc3c2c1` (stereo not shown) [Example 152]: the melting point was found to be 136 °C.

Regarding `Cc1nc(-c2ccc(O[C@@H](CCc3ccccc3)C(=O)O)cc2)cs1` [Example 26], the melting point fell in the range of 150 to 152 °C.

On to `O=C(O)C(CCc1ccco1)Oc1ccc(Br)cc1` (stereo not shown) [Example 227], for which the melting point was 102 to 104 °C.

`O=C(O)C(CCc1ccc(F)cc1)Oc1ccc(-c2cc3ccccc3s2)cc1` (stereo not shown) [Example 146] had a melting point of 188 to 190 °C.

Take `Cc1cc(OC(CCc2ccccc2)C(=O)O)cc(=O)o1` (stereo not shown) [Example 207]: the melting point was found to be 165 °C.

In turn, `O=C(O)[C@H](CCc1ccccc1)Oc1ccc(-c2ccsc2)cc1` [Example 8] had a melting point of 176 to 177 °C.
